This is an account of results in PubChem BioAssay (NCI).

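How tested: cells in 96-well plates exposed to compound for 48 hours at five concentrations. Abbreviation: GI50, concentration required for 50% inhibition of growth. TGI is the concentration that stops growth completely.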

Among the test systems are SF-268 CNS; KM12 colon; ACHN renal; HL-60(TB) leukemia; HOP-62 NSCLC; SK-OV-3 ovarian; OVCAR-4 ovarian; NCI-H226 lung; HCT-15 colon.
Assay in all cases: growth of human tumour cells (NCI), 48 h

Regarding `C[C@]12CC=CC(=O)[C@@]1(C)CCC(=O)C2`, the TGI in the assay on SF-268 CNS, in the assay on KM12 colon, in the assay on ACHN renal, in the assay with HL-60(TB) leukemia, with HOP-62 NSCLC and in the assay on SK-OV-3 ovarian was over 100 µM each time. Also, the TGI in the assay on OVCAR-4 ovarian and in the assay with NCI-H226 lung was over 100 µM throughout.
Turning to `O=C1N/C(=C\[N+](=O)[O-])c2ccccc21`, the TGI with SF-268 CNS, in the assay with KM12 colon, with HCT-15 colon, in the assay with ACHN renal, with HL-60(TB) leukemia and with HOP-62 NSCLC was over 100 µM in each case. The TGI in the assay on SK-OV-3 ovarian, in the assay with OVCAR-4 ovarian and in the assay with NCI-H226 lung was over 100 µM each time.
On to `O=C(Nc1cccc(O)c1)C(=O)C1C(=O)NC(=S)NC1=O`, for which the TGI in the assay on SF-268 CNS, in the assay with HCT-15 colon, in the assay with ACHN renal, in the assay with HL-60(TB) leukemia, in the assay on SK-OV-3 ovarian and in the assay with OVCAR-4 ovarian was over 100 µM in each case. The compound further returned a TGI in the assay on NCI-H226 lung of over 100 µM.
On to `CC1(O)C(C)(O)C2(C)O[Te]3(OC12C)OC1(C)C(C)(O)C(C)(O)C1(C)O3` (configuration not stated), for which the TGI in the assay on KM12 colon is over 100 µM; in the assay with HCT-15 colon, 34.4 µM; with ACHN renal, over 100 µM; in the assay with HL-60(TB) leukemia, 31.5 µM; in the assay on HOP-62 NSCLC it was over 100 µM; in the assay on OVCAR-4 ovarian, 77.9 µM. In the assay on NCI-H226 lung, this compound returned a TGI of 89.2 µM.
On to `NC(CCCC(N)P(=O)(O)O)P(=O)(O)O` (configuration not stated), for which the TGI in the assay on KM12 colon, in the assay with HCT-15 colon, in the assay with ACHN renal, in the assay on SK-OV-3 ovarian and with NCI-H226 lung was over 100 µM throughout.
Consider `CC(=O)C1C(c2ccccc2)C2(C)OC(=O)C(C#N)C12C` (configuration not stated), for which the TGI in the assay with SF-268 CNS, in the assay with KM12 colon, with HCT-15 colon, with ACHN renal, in the assay with HL-60(TB) leukemia and in the assay with SK-OV-3 ovarian was over 100 µM throughout. Moreover, the TGI in the assay on OVCAR-4 ovarian and in the assay with NCI-H226 lung was over 100 µM each time.
Take `COc1cc(NCC(C#N)C#N)ccc1N=Nc1ccc(Cl)cc1`: the TGI was over 100 µM in the assay on SF-268 CNS; 33.4 µM in the assay on KM12 colon; 47.4 µM in the assay with HCT-15 colon; over 100 µM in the assay with ACHN renal; 36.4 µM with HOP-62 NSCLC; 83.8 µM with SK-OV-3 ovarian. Also, the TGI in the assay with OVCAR-4 ovarian and in the assay on NCI-H226 lung was over 100 µM in each case.
Regarding `O=C(Nc1ccc(C(F)(F)F)cc1[N+](=O)[O-])C(=O)C1NC(=S)NC1=O` (configuration not stated), the TGI with SF-268 CNS, in the assay on KM12 colon, with HCT-15 colon, in the assay with ACHN renal, in the assay on HL-60(TB) leukemia and in the assay with HOP-62 NSCLC was over 100 µM in each case. Also, the TGI with SK-OV-3 ovarian was over 100 µM; in the assay on OVCAR-4 ovarian, over 100 µM; with NCI-H226 lung, 24.1 µM.
As to `O=S(=O)(C1=CC(S(=O)(=O)c2ccccc2)CN(Cc2ccccc2)C1c1cccc2ccccc12)c1ccccc1` (configuration not stated), the TGI with SF-268 CNS, with KM12 colon, with HCT-15 colon, in the assay with ACHN renal, in the assay on HL-60(TB) leukemia and in the assay with HOP-62 NSCLC was over 69 µM each time. Further, the TGI with SK-OV-3 ovarian, in the assay on OVCAR-4 ovarian and in the assay with NCI-H226 lung was over 69 µM each time.
Consider `CCCCCCCCn1ccc2cc(NC(=O)Cn3cc(CN4CCCCCC4)nn3)ccc21`, for which the GI50 in the assay on SF-268 CNS was 1.8 µM; with KM12 colon it was 1.73 µM; with HCT-15 colon, 1.6 µM; in the assay with ACHN renal it was 1.73 µM; with HL-60(TB) leukemia, 1.87 µM; in the assay on HOP-62 NSCLC it was 1.64 µM. The GI50 in the assay with SK-OV-3 ovarian was 1.75 µM; in the assay with OVCAR-4 ovarian it was 1.59 µM; in the assay with NCI-H226 lung it was 2.23 µM. The TGI was 3.37 µM with SF-268 CNS; 3.27 µM in the assay with KM12 colon; 3.17 µM in the assay on HCT-15 colon; 3.11 µM with ACHN renal; 3.75 µM with HL-60(TB) leukemia; 3.14 µM in the assay with HOP-62 NSCLC. In addition, the TGI in the assay with SK-OV-3 ovarian came to 3.33 µM; in the assay with OVCAR-4 ovarian, 3.13 µM; with NCI-H226 lung it was 5.07 µM.
Consider `C[C@]12CCc3sc(Nc4ccc(OC(F)(F)F)cc4)nc3C1=CC[C@@H]1[C@@H]2CC[C@]2(C)C(=O)CC[C@@H]12`, for which the GI50 in the assay on SF-268 CNS was 3.01 µM; with KM12 colon, 3.56 µM; in the assay with HCT-15 colon, 1.69 µM; in the assay with ACHN renal, 3.27 µM; in the assay with HL-60(TB) leukemia it was 1.93 µM; with HOP-62 NSCLC, 1.92 µM. Further, the GI50 in the assay with SK-OV-3 ovarian was 3.04 µM; in the assay with OVCAR-4 ovarian, 3.31 µM; with NCI-H226 lung it was 6.37 µM. Further, the TGI with SF-268 CNS was 12.3 µM; in the assay with KM12 colon it was 15 µM; with HCT-15 colon, 4.1 µM; in the assay with ACHN renal, 10.8 µM; with HL-60(TB) leukemia, 4.44 µM; with HOP-62 NSCLC, 4.19 µM. Besides, the TGI in the assay with SK-OV-3 ovarian was 10 µM; with OVCAR-4 ovarian it was 25.8 µM; with NCI-H226 lung it was 44.1 µM.
As for `CCCC1(CC(=O)O)OCCc2c1[nH]c1ccccc21` (configuration not stated), the TGI in the assay on SF-268 CNS, with KM12 colon, with HCT-15 colon, in the assay on ACHN renal, in the assay on HL-60(TB) leukemia and in the assay with HOP-62 NSCLC was over 100 µM each time. The TGI in the assay on SK-OV-3 ovarian, in the assay with OVCAR-4 ovarian and in the assay on NCI-H226 lung was over 100 µM throughout.
On to `CC(=O)Oc1c(C)c(-c2ccccc2)c(C)c(-c2ccccc2)c1C(=S)c1ccccc1`, for which the TGI in the assay with SF-268 CNS, with KM12 colon, with HCT-15 colon, in the assay with ACHN renal, with HL-60(TB) leukemia and in the assay on HOP-62 NSCLC was over 100 µM each time. Also, the TGI in the assay with SK-OV-3 ovarian and with NCI-H226 lung was over 100 µM each time.
Turning to `CCOC(=O)[CH-]C(=O)C12CC3CC(CC(C3)C1)C2.CCOC(=O)[CH-]C(=O)C12CC3CC(CC(C3)C1)C2.CC[O-].CC[O-].[Ti+4]`, the GI50 in the assay with SF-268 CNS, with KM12 colon, with ACHN renal, with HL-60(TB) leukemia, in the assay with HOP-62 NSCLC and in the assay on SK-OV-3 ovarian was over 100 µM throughout. Besides, the GI50 in the assay on OVCAR-4 ovarian was over 100 µM. Further, the TGI with SF-268 CNS, in the assay on KM12 colon, with ACHN renal, in the assay with HL-60(TB) leukemia, in the assay on HOP-62 NSCLC and in the assay with SK-OV-3 ovarian was over 100 µM throughout. Moreover, the TGI with OVCAR-4 ovarian is over 100 µM.
